Experimental data published in patent US20250326771A1, “PIPERAZINE DERIVATIVES USEFUL IN HIV THERAPY” (VIIV HEALTHCARE COMPANY, priority 2022, published 2025).
Like-named read-outs stand apart in the source and are kept apart here.

Assays:
cIAP1-BIR3 = cIAP1-BIR3 (Homo sapiens (Human), UniProt Q13490); assay: BIR binding assay (FRET competition), cIAP1 BIR3; details: for cIAP1 BIR3 vs BIR2 separation window: fold separation (FS) for cIAP1
Outline: (§1)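 615/665 nm FRET ratio. Compound, His-domain and 200 nM AF647-SMAC peptide incubated 60 min, then 2 nM Eu-W1024 for 30 min. Domains: cIAP1-BIR3 50 nM; XIAP-BIR3 100 nM; cIAP1-BIR2, cIAP2-BIR2 325 nM each. 15-pt 3-fold series; variable-slope IC50.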

cIAP2-BIR3 = cIAP2-BIR3 (Homo sapiens (Human), UniProt Q13489); assay: BIR binding assay (FRET competition), cIAP2 BIR3; details: for cIAP2 BIR3 vs BIR2 separation window: fold separation (FS) for cIAP2
Chain of cIAP2-BIR3 (Q13489 238-349): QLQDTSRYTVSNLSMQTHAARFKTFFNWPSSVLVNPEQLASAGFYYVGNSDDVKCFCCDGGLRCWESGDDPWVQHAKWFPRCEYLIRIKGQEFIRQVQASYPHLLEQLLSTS

XIAP-BIR3 = XIAP-BIR3 (Homo sapiens (Human), UniProt P98170); assay: BIR binding assay (FRET competition), XIAP BIR3; details: for XIAP BIR3 vs BIR2 separation window: fold separation (FS) for XIAP
Chain of XIAP-BIR3 (P98170 241-356): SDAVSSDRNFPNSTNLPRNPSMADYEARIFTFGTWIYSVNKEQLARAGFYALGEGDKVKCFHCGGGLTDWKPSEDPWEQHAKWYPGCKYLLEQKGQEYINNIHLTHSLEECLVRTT
Outline: as §1

cIAP2-BIR2 = cIAP2-BIR2 (Homo sapiens (Human), UniProt Q13489); assay: BIR binding assay (FRET competition), cIAP2 BIR2
Chain of cIAP2-BIR2 (Q13489 158-242): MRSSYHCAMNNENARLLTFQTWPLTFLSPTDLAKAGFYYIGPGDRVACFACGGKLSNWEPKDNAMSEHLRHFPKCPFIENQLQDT
Outline: as §1

cIAP1-BIR2 = cIAP1-BIR2 (Homo sapiens (Human), UniProt Q13490); assay: BIR binding assay (FRET competition), cIAP1 BIR2
Chain of cIAP1-BIR2 (Q13490 173-257): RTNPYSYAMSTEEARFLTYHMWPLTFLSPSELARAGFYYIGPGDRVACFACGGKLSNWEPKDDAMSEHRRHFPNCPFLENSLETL
Outline: as §1

XIAP-BIR2 = XIAP-BIR2 (Homo sapiens (Human), UniProt P98170); assay: BIR binding assay (FRET competition), XIAP BIR2
Chain of XIAP-BIR2 (P98170 124-240): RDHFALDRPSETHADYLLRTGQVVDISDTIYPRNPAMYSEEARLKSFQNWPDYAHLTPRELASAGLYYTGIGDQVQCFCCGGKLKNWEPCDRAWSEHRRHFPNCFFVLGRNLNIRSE
Outline: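 Competitive TR-FRET used His-tagged XIAP-BIR2 (200 nM) and 200 nM AlexaFluor647-labelled AVPIAQKSE SMAC peptide in HEPES buffer pH 7.4 with CHAPS, glycerol and DTT, incubated 60 min before 30 min with 2 nM Eu-W1024. The 615/665 nm ratio from a 15-point, 3-fold series was fit with a four-parameter model for IC50/pIC50.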

[1] = tested on: Jurkat HIV-luciferase clones; assay: Jurkat latency reversal assay; assay type: cell-based; details: Homo sapiens, 48 h; Jurkat latency reversal assay potency; read-out: Jurkat pEC50 (converted)
Outline: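 Three pooled Jurkat reporter clones, each with one or two integrated HIV-luciferase proviruses, 5,000 cells/well; duplicate 14-point titrations starting at 10 μM; 48 h, 37° C, then Steady-Glo luminescence; four-parameter logistic analysis yields EC50 and percent maximal activation against DMSO vehicle.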

[2] = FRET competition binding, read-out: XIAP BIR2 (pIC50) (converted)
[3] = FRET competition, read-out: XIAP BIR2 (pIC50) (converted)

Chain of cIAP1-BIR3 (Q13490 253-363): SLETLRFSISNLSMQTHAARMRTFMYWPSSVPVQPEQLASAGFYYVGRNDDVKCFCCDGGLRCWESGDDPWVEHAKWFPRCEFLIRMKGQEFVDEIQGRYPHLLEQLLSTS

Row | Compound | IC50 (cIAP1-BIR3) | cIAP1 BIR3 vs BIR2 separation window (cIAP1-BIR3) | IC50 (cIAP2-BIR3) | cIAP2 BIR3 vs BIR2 separation window (cIAP2-BIR3) | IC50 (XIAP-BIR3) | XIAP BIR3 vs BIR2 separation window (XIAP-BIR3) | IC50 (cIAP2-BIR2) | IC50 (cIAP1-BIR2) | IC50 (XIAP-BIR2; [2]) | EC50 [1] | IC50 (XIAP-BIR2; [3]) | IC50 (XIAP-BIR2)
1 | C[C@@H]1CN(CC(=O)N2CC(C)(C)c3[nH]c(=O)c(Cc4ccc(F)cc4)cc32)[C@@H](CN2CCO[C@H](C(=O)N3CCCN(C(=O)[C@@H]4CN(C[C@H]5CN[C@H](C)CN5CC(=O)N5CC(C)(C)c6[nH]c(=O)c(Cc7ccc(F)cc7)cc65)CCO4)CC3)C2)CN1 [Example 131, 1,1′-(2,2′-((3R,3′R,6R,6′R)-(((2S,2'S)-(1,4-diazepane-1,4-dicarbonyl)bis(morpholine-2,4-diyl))bis(methylene))bis(3-methylpiperazine-6,1-diyl))bis(acetyl))bis(6-(4-fluorobenzyl)-3,3-dimethyl-1,2,3,4-tetrahydro-5H-pyrrolo[3,2-b]pyridin-5-one)] | 31.6 to 501 nM | ++ (1,000>FS>100) | 7.94 to 15.8 nM | +++ (10,000>FS>1,000) | 15.8 to 31.6 nM | ++++ (FS>10,000) | 1000 to 3160 nM | 1000 to 3160 nM | 10000 to 51300 nM | 12.6 to 63.1 nM | – | –
2 | C[C@@H]1CN(CC(=O)N2CC(C)(C)c3[nH]c(=O)c(Cc4ccc(F)cc4)cc32)[C@@H](CN2CCN(C(=O)COCCOCCOCC(=O)N3CCN(C[C@H]4CN[C@H](C)CN4CC(=O)N4CC(C)(C)c5[nH]c(=O)c(Cc6ccc(F)cc6)cc54)[C@H](C)C3)C[C@H]2C)CN1 (stereo in doubt) [Example 6, 1,1′-(2,2′-((3R,3′R,6R,6′R)-(((2R,2′R)-(2,2′-((oxybis(ethane-2,1-diyl))bis(oxy))bis(acetyl))bis(2-methylpiperazine-4,1-diyl))bis(methylene))bis(3-methylpiperazine-6,1-diyl))bis(acetyl))bis(6-(4-fluorobenzyl)-3,3-dimethyl-1,2,3,4-tetrahydro-5H-pyrrolo[3,2-b]pyridin-5-one)] | 1.38 to 7.94 nM | +++ (10,000>FS>1,000) | 1.38 to 7.94 nM | +++ (10,000>FS>1,000) | 1.38 to 7.94 nM | ++++ (FS>10,000) | 22.4 to 1000 nM | 22.4 to 1000 nM | 10000 to 51300 nM | 63.1 to 316 nM | – | –
3 | C[C@@H]1CN(CC(=O)N2CC(C)(C)c3[nH]c(=O)c(Cc4ccc(F)cc4)cc32)[C@@H](CN2CCO[C@H](C(=O)NCCCC(=O)N3CCN(C[C@H]4CN[C@H](C)CN4CC(=O)N4CC(C)(C)c5[nH]c(=O)c(Cc6ccc(F)cc6)cc54)[C@H](C)C3)C2)CN1 [Compound 160, (S)-4-(((2R,5R)-1-(2-(6-(4-fluorobenzyl)-3,3-dimethyl-5-oxo-2,3,4,5-tetrahydro-1H-pyrrolo[3,2-b]pyridin-1-yl)-2-oxoethyl)-5-methylpiperazin-2-yl)methyl)-N-(4-((R)-4-(((2R,5R)-1-(2-(6-(4-fluorobenzyl)-3,3-dimethyl-5-oxo-2,3,4,5-tetrahydro-1H-pyrrolo[3,2-b]pyridin-1-yl)-2-oxoethyl)-5-methylpiperazin-2-yl)methyl)-3-methylpiperazin-1-yl)-4-oxobutyl)morpholine-2-carboxamide] | 7.94 to 15.8 nM | ++ (1,000>FS>100) | 7.94 to 15.8 nM | +++ (10,000>FS>1,000) | 7.94 to 15.8 nM | ++++ (FS>10,000) | 1000 to 3160 nM | 1000 to 3160 nM | – | 63.1 to 316 nM | 10000 to 51300 nM | –
4 | C[C@@H]1CN(CC(=O)N2CC(C)(C)c3[nH]c(=O)c(Cc4ccc(F)cc4)cc32)[C@@H](CN2CCO[C@H](C(=O)NCCCCNC(=O)[C@@H]3CN(C[C@H]4CN[C@H](C)CN4CC(=O)N4CC(C)(C)c5[nH]c(=O)c(Cc6ccc(F)cc6)cc54)CCO3)C2)CN1 [Example 126, (2S,2'S)-N,N′-(butane-1,4-diyl)bis(4-(((2R,5R)-1-(2-(6-(4-fluorobenzyl)-3,3-dimethyl-5-oxo-2,3,4,5-tetrahydro-1H-pyrrolo[3,2-b]pyridin-1-yl)-2-oxoethyl)-5-methylpiperazin-2-yl)methyl)morpholine-2-carboxamide)] | 7.94 to 15.8 nM | +++ (10,000>FS>1,000) | 7.94 to 15.8 nM | +++ (10,000>FS>1,000) | 7.94 to 15.8 nM | ++++ (FS>10,000) | 1000 to 3160 nM | 1000 to 3160 nM | 10000 to 51300 nM | 63.1 to 316 nM | – | –
5 | C[C@@H]1CN(CC(=O)N2CC(C)(C)c3ncc(Cc4ccc(F)cc4)cc32)[C@@H](CN2CCO[C@H](COc3cccc(OC[C@@H]4CN(C[C@H]5CN[C@H](C)CN5CC(=O)N5CC(C)(C)c6ncc(Cc7ccc(F)cc7)cc65)CCO4)c3)C2)CN1 [Compound 145] | 7.94 to 15.8 nM | +++ (10,000>FS>1,000) | 7.94 to 15.8 nM | +++ (10,000>FS>1,000) | 31.6 to 501 nM | ++++ (FS>10,000) | 10000 to 51300 nM | 3160 to 10000 nM | – | 12.6 to 63.1 nM | 10000 to 51300 nM | –
6 | C[C@@H]1CN(CC(=O)N2CC(C)(C)c3[nH]c(=O)c(Cc4ccc(F)cc4)cc32)[C@@H](CN2CCO[C@H](COc3ccc(C#N)c(OC[C@@H]4CN(C[C@H]5CN[C@H](C)CN5CC(=O)N5CC(C)(C)c6[nH]c(=O)c(Cc7ccc(F)cc7)cc65)CCO4)c3)C2)CN1 [Example 77, 2,4-bis(((S)-4-(((2R,5R)-1-(2-(6-(4-fluorobenzyl)-3,3-dimethyl-5-oxo-2,3,4,5-tetrahydro-1H-pyrrolo[3,2-b]pyridin-1-yl)-2-oxoethyl)-5-methylpiperazin-2-yl)methyl)morpholin-2-yl)methoxy)benzonitrile] | 1.38 to 7.94 nM | +++ (10,000>FS>1,000) | 1.38 to 7.94 nM | +++ (10,000>FS>1,000) | 15.8 to 31.6 nM | ++++ (FS>10,000) | 1000 to 3160 nM | 1000 to 3160 nM | 10000 to 51300 nM | 12.6 to 63.1 nM | – | –
7 | C[C@@H]1CN(CC(=O)N2CC(C)(C)c3[nH]c(=O)c(Cc4ccc(F)cc4)cc32)[C@@H](CN2CCN(CCc3cn(CCCC(=O)N4CCN(C[C@H]5CN[C@H](C)CN5CC(=O)N5CC(C)(C)c6[nH]c(=O)c(Cc7ccc(F)cc7)cc65)[C@H](C)C4)nn3)C[C@H]2C)CN1 [Compound 157] | 7.94 to 15.8 nM | ++ (1,000>FS>100) | 7.94 to 15.8 nM | ++ (1,000>FS>100) | 15.8 to 31.6 nM | ++++ (FS>10,000) | 22.4 to 1000 nM | 1000 to 3160 nM | – | 63.1 to 316 nM | 10000 to 51300 nM | –
8 | C[C@@H]1CN(CC(=O)N2CC(C)(C)c3[nH]c(=O)c(Cc4ccc(F)cc4)cc32)[C@@H](CN2CCC(CN(C)C(=O)c3ccc(C(=O)N(C)CC4CCN(C[C@H]5CN[C@H](C)CN5CC(=O)N5CC(C)(C)c6[nH]c(=O)c(Cc7ccc(F)cc7)cc65)CC4)cc3)CC2)CN1 [Example 96, N^1,N^4-bis((1-(((2R,5R)-1-(2-(6-(4-fluorobenzyl)-3,3-dimethyl-5-oxo-2,3,4,5-tetrahydro-1H-pyrrolo[3,2-b]pyridin-1-yl)-2-oxoethyl)-5-methylpiperazin-2-yl)methyl)piperidin-4-yl)methyl)-N^1,N^4-dimethylterephthalamide] | 1.38 to 7.94 nM | +++ (10,000>FS>1,000) | 7.94 to 15.8 nM | +++ (10,000>FS>1,000) | 7.94 to 15.8 nM | ++++ (FS>10,000) | 1000 to 3160 nM | 1000 to 3160 nM | 10000 to 51300 nM | 63.1 to 316 nM | – | –
9 | C[C@@H]1CN(CC(=O)N2CC(C)(C)c3[nH]c(=O)c(Cc4ccc(F)cc4)cc32)[C@@H](CN2CCO[C@H](COc3cccc(OC[C@@H]4CN(C[C@H]5CN[C@H](C)CN5CC(=O)N5CC(C)(C)c6[nH]c(=O)c(Cc7ccc(F)cc7)cc65)CCO4)c3F)C2)CN1 [Example 72, 1,1′-(2,2′-((3R,3′R,6R,6′R)-(((2S,2'S)-(((2-fluoro-1,3-phenylene)bis(oxy))bis(methylene))bis(morpholine-2,4-diyl))bis(methylene))bis(3-methylpiperazine-6,1-diyl))bis(acetyl))bis(6-(4-fluorobenzyl)-3,3-dimethyl-1,2,3,4-tetrahydro-5H-pyrrolo[3,2-b]pyridin-5-one)] | 7.94 to 15.8 nM | – | 15.8 to 31.6 nM | – | 15.8 to 31.6 nM | – | 1000 to 3160 nM | 22.4 to 1000 nM | – | 0.49 to 12.6 nM | – | 10000 to 51300 nM
